In article PMC6152791, “Synthesis and Evaluation of Novel 2-Pyrrolidone-Fused (2-Oxoindolin-3-ylidene)methylpyrrole Derivatives as Potential Multi-Target Tyrosine Kinase Receptor Inhibitors” (Molecules : A Journal of Synthetic Chemistry and Natural …, 2017):

What was measured:
aurora A = target: T1, aurora A (Homo sapiens, UniProt O14965); assay: In vitro kinase assay (HotSpot, 33P); assay type: biochemical; settings: 1.0 μM compound, ATP 10.0 μM
T1 construct: purchased Reaction Biology Corporation
T1 sequence (O14965 1-403): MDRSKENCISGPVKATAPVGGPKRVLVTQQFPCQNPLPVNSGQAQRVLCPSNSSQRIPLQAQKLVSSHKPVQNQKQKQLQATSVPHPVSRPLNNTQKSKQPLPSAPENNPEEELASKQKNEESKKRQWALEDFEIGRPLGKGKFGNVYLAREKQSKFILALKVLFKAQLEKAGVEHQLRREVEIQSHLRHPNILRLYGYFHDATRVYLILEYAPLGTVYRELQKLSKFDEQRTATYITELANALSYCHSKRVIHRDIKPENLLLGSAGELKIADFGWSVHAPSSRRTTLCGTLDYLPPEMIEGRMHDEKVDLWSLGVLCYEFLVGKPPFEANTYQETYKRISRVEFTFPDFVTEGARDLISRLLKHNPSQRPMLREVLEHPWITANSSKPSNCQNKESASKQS
Procedure: […]. Briefly, specific kinase and substrate and required cofactors were prepared in reaction buffer. Test compounds were added into the reaction, after 20 min, a mixture of ATP (Sigma, St. Louis, MO, USA) and ^33P ATP (Perkin Elmer, Waltham, MA, USA) was added to make a final concentration of 10.0 μM. Reactions were stood at room temperature for 120 min, and spot the reactions onto P81 ion exchange filter paper (Whatman Inc., Piscataway, NJ, USA). Unbound phosphate was removed by extensive washing of filters in 0.1% phosphoric acid. Kinase activity data was reported as the percent remaining kinase activity in test compounds compared to solvent control (DMSO).

HUVECs = assay: In vitro VEGF-induced tube formation assay (Kurabo angiogenesis kit); assay type: cell-based, human; settings: for IC50: Homo sapiens, HUVEC, 264 h, VEGF 10 ng/mL, 11 days, read-out: IC50 of Tube Area
Procedure: Angiogenesis Kit (Kurabo, Neyagawa, Osaka, Japan) was used in accordance with the manufacturer’s protocols. Briefly, HUVECs and fibroblasts were co-cultured in 24-well plates with basal medium or solvent control medium (basal medium containing 1.0% DMSO) or solvent control medium containing 9, 10, 11, and 12 (0.50 μM, 0.25 μM and 0.10 μM). The medium renewals with or without agent in cultures were conducted every 3 days. After 11 days HUVECs were fixed and stained with anti-CD31 antibody in line with the manufacturer’s protocols. The tube formation area were measured using Angiogenesis Image Analyzer (Kurabo, Neyagawa, Osaka, Japan) with suaramin (70 μM) as positive control.

Detroit 551 = assay: Cell proliferation assay (MTT) on normal fibroblasts; assay type: cell-based; settings: Homo sapiens, 72 h incubation, normal fibroblast cells
Procedure: The HCT116 (human colon cancer cells, BCRC 60349) and Detroit 551 (human normal fibroblast cells, BCRC 60118) were maintained in DMEM (Gibco, Grand Island, NY, USA) containing 10% FBS (HyClone, Logan, UT, USA). NCI-H460 (BCRC 60373) and 786-O (BCRC 60243) were maintained in RPMI 1640 (Gibco, Grand Island, NY, USA) containing 10% FBS (HyClone, Logan, UT, USA). They were incubated at 37 °C in a 5% CO2 atmosphere.
The cells incubated as above were plated at a density of 2000 cells/well (cancer cells) or 10,000 cells/well (Detroit 551) on a 96-well plate for 24 h; serial dilutions of indicated compounds were added and incubated for additional 72 h. At the end of the incubation, cell viability was determined by 3-(4,5-dimethylthiazol-2-yl)-2,5-diphenyl tetrazolium bromide (MTT). The MTT formazan crystals were dissolved by DMSO, and the absorbance at 570 nm using a microplate spectrophotometer (Thermo Fisher Scientific, Waltham, MA, USA).

786-O = assay: Cell proliferation assay (MTT); assay type: cell-based, human; settings: for IC50: Homo sapiens, 786-0, MTT, 72 h incubation; for Selective Index (SI) 786-O: relative to Detroit 551 normal fibroblasts
Procedure: (§1) At the end of the incubation, cell viability was determined by 3-(4,5-dimethylthiazol-2-yl)-2,5-diphenyl tetrazolium bromide (MTT). The MTT formazan crystals were dissolved by DMSO, and the absorbance at 570 nm using a microplate spectrophotometer (Thermo Fisher Scientific, Waltham, MA, USA).

HCT116 = assay: Cell proliferation assay (MTT); assay type: cell-based, human; settings: for IC50: Homo sapiens, HCT-116, MTT, 72 h incubation; for Selective Index (SI) HCT116: relative to Detroit 551 normal fibroblasts
Procedure: as §1

NCI-H460 = assay: Cell proliferation assay (MTT); assay type: cell-based, human; settings: for IC50: Homo sapiens, NCI-H460, MTT, 72 h incubation; for Selective Index (SI) NCI-H460: relative to Detroit 551 normal fibroblasts
Procedure: as §1

HCT116 cells = assay: Cell cycle profile by image cytometry; assay type: cell-based, human; settings: 24 h
Procedure: Cell cycle profiles of HCT116 cells were determined with an NC-3000 image cytometer (ChemoMetec, Allerod, Denmark) in accordance with manufacturer’s protocol. Briefly, cells were seeded at 200,000 cells/well on a 6-well plate for 24 h. […] After incubation for 24 h, 100,000 cells were harvested and centrifuged for 5 min at 400 g at room temperature, washed once with PBS […] and resuspended with 50 μL of lysis buffer (ChemoMetec, Allerod, Denmark) containing 10 μg/mL of 2-(4-amidinophenyl)-1H-indole-6-carboxamidine (DAPI, ChemoMetec, Allerod, Denmark). The cells were incubated at 37 °C for 5 min, 50 μL of stabilization buffer (ChemoMetec, Allerod, Denmark) was added to the solution, and the cellular fluorescence was measured with an NC-3000 image cytometer using NC-SlideA8 (ChemoMetec, Allerod, Denmark). The NC-3000 software (ChemoMetec, Allerod, Denmark) was used for image acquisition, image analysis and quantification and data visualization.

VEGFR-2 = target: T2, VEGFR-2 (Homo sapiens, UniProt P35968); assay: In vitro kinase assay (HotSpot, 33P); assay type: biochemical; settings: ATP 10.0 μM; for inhibition at 0.05 µM: 50 nM compound
T2 construct: purchased Reaction Biology Corporation
Procedure: (§2) Briefly, specific kinase and substrate and required cofactors were prepared in reaction buffer. Test compounds were added into the reaction, after 20 min, a mixture of ATP (Sigma, St. Louis, MO, USA) and ^33P ATP (Perkin Elmer, Waltham, MA, USA) was added to make a final concentration of 10.0 μM. Reactions were stood at room temperature for 120 min, and spot the reactions onto P81 ion exchange filter paper (Whatman Inc., Piscataway, NJ, USA). Unbound phosphate was removed by extensive washing of filters in 0.1% phosphoric acid. Kinase activity data was reported as the percent remaining kinase activity in test compounds compared to solvent control (DMSO).

PDGFRβ = target: T3, PDGFRβ (Homo sapiens, UniProt P09619); assay: In vitro kinase assay (HotSpot, 33P); assay type: biochemical; settings: ATP 10.0 μM; for inhibition at 0.05 µM: 50 nM compound
T3 construct: purchased Reaction Biology Corporation
Procedure: as §2

[1] = tested on: Detroit 551, HCT116, NCI-H460 and 786-O cell lines; assay: Acute cytotoxicity (WST-8, Cell-Counting-Kit-8); assay type: cell-based, human; settings: 10 μM, 6 h, WST-8, all tested cell lines
Procedure: Cells were seeded at 5000 cells/well on a 96-well plate for 24 h. The indicated compounds in different concentration (100 μL) were added to cells. Post 6 h, old medium was aspirated, and cells were washed three times with PBS. WST-8 (Dojindo, Rockville, MD, USA) (10 µL) was added to each well, and the absorbance of the plate was recorded at 450 nm on a microplate spectrophotometer (Thermo Fisher Scientific, Waltham, MA, USA).

T3 sequence (P09619 33-1106): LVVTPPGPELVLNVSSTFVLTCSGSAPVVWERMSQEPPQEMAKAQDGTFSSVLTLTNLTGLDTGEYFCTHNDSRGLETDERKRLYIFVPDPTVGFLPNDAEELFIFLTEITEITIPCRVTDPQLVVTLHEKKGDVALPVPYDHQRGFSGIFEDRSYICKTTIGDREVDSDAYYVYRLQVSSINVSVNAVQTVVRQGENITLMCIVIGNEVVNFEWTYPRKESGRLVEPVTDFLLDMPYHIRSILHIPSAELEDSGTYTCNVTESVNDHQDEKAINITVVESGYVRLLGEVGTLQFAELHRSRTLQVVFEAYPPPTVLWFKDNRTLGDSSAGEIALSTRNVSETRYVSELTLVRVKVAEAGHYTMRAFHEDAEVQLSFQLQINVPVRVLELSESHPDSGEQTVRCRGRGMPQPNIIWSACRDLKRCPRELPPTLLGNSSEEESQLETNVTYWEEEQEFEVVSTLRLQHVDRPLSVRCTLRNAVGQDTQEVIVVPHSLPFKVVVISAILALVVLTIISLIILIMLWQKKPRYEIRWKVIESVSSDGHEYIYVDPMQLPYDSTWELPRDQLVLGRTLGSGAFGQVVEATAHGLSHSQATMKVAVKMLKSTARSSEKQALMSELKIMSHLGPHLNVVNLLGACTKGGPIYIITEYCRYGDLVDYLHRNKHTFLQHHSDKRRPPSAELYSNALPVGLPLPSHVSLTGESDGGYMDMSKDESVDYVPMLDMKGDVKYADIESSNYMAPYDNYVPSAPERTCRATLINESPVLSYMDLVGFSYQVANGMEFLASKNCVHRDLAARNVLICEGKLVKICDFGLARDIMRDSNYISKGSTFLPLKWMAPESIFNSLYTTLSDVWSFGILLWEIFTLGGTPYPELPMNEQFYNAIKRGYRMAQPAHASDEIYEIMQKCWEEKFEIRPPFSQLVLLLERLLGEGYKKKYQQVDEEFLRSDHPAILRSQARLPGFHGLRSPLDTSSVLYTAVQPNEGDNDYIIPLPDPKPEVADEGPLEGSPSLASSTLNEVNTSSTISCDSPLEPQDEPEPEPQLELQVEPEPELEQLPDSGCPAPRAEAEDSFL
T2 sequence (P35968 20-1356): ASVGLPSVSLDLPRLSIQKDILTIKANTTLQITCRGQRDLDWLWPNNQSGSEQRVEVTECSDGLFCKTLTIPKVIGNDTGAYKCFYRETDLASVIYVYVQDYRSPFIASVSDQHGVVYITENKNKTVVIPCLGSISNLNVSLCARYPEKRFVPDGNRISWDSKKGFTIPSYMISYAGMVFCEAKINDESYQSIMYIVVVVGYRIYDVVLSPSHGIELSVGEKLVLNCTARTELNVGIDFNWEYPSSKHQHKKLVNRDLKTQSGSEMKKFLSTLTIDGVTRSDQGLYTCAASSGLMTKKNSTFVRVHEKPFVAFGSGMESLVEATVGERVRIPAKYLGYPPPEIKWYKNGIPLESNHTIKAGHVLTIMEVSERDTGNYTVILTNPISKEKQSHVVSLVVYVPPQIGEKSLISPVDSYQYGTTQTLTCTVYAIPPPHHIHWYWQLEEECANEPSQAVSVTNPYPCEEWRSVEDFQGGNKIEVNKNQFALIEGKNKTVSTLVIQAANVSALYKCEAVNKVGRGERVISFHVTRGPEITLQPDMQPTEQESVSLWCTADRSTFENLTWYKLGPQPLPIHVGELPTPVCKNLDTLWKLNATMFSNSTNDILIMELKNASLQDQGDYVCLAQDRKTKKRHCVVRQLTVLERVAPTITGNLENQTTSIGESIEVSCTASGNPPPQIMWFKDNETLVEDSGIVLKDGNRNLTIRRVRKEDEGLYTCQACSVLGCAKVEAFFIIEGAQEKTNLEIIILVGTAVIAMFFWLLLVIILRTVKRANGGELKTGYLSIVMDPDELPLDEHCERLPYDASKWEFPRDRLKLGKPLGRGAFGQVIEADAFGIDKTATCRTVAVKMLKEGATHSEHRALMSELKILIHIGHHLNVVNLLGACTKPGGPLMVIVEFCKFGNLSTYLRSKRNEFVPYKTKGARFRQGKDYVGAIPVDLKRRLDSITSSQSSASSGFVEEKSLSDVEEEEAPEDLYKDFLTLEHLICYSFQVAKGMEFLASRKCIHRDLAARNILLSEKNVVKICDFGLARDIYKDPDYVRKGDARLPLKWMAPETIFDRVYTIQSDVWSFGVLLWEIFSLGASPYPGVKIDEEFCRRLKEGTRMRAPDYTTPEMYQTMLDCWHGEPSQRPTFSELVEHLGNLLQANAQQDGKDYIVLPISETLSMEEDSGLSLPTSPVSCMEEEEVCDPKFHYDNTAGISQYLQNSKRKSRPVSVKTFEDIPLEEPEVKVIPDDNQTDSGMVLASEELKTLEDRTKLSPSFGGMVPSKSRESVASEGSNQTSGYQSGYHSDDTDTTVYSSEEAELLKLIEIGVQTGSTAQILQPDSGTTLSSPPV

inhibition at 1 µM (aurora A)	IC50 (786-O)	IC50 (HCT116)	IC50 (NCI-H460)	melting point	inhibition at 0.05 µM (VEGFR-2)	IC50 (VEGFR-2)	inhibition at 0.05 µM (PDGFRβ)	IC50 (PDGFRβ)	Compound	IC50 (HUVECs)	IC50 (Detroit 551)	Selective Index (SI) 786-O (786-O)	Selective Index (SI) HCT116 (HCT116)	anti-proliferation potency against HCT116, fold stronger than 8 (HCT116; vs 8 (C(5)-H))	anti-proliferation potency against HCT116, fold stronger than sunitinib (HCT116; vs sunitinib)	Selective Index (SI) NCI-H460 (NCI-H460)	cell cycle profile effect (HCT116 cells; 1.0 μM)	cell cycle profile effect (HCT116 cells; 5.0 μM)	acute cellular toxicity [1]	tube formation IC50, fold stronger than sunitinib (HUVECs; vs sunitinib)
93.1%	> 10 µM	2.94 ± 0.66 µM	> 10 µM	245 to 246 °C	35%	111 nM	36%	97.5 nM	CCN(CC)CCN1Cc2[nH]c(/C=C3\C(=O)Nc4ccc(F)cc43)c(C)c2C1=O [Compound 9, (Z)-3-((5-(2-(Diethylamino)ethyl)-3-methyl-4-oxo-1,4,5,6-tetrahydropyrrolo[3,4-b]pyrrol-2-yl)methylene)-5-fluoroindolin-2-one]	367 ± 16 nM	> 10 µM	–	>3.4	–	–	–	–	G0/G1 cell cycle arrest	–	–
–	6.27 ± 0.67 µM	3.42 ± 0.57 µM	6.23 ± 0.57 µM	–	–	–	44%	–	CCN(CC)CCNC(=O)c1c(C)[nH]c(/C=C2\C(=O)Nc3ccc(F)cc32)c1C [Sunitinib, sunitinib, reference compound]	387 ± 16 nM	–	–	–	–	–	–	–	G0/G1 cell cycle arrest	nearly free from acute cellular toxicity	–
95.9%	> 10 µM	4.25 ± 1.88 µM	> 10 µM	167 to 168 °C	56%	30.2 nM	64%	22.4 nM	CCN(CC)CCN1Cc2[nH]c(/C=C3\C(=O)Nc4ccccc43)c(C)c2C1=O [Compound 8, (Z)-3-((5-(2-(Diethylamino)ethyl)-3-methyl-4-oxo-1,4,5,6-tetrahydropyrrolo[3,4-b]pyrrol-2-yl)methylene)indolin-2-one]	310 ± 15 nM	> 10 µM	–	>2.35	–	–	–	–	increase phase of polyploid	–	–
93.7%	7.3 ± 1.2 µM	3.09 ± 0.7 µM	> 10 µM	252 to 253 °C	58%	35 nM	64%	24.9 nM	CCN(CC)CCN1Cc2[nH]c(/C=C3\C(=O)Nc4ccc(Cl)cc43)c(C)c2C1=O [Compound 10, (Z)-5-Chloro-3-((5-(2-(diethylamino)ethyl)-3-methyl-4-oxo-1,4,5,6-tetrahydropyrrolo[3,4-b]pyrrol-2-yl)methylene)indolin-2-one]	299 ± 70 nM	> 10 µM	>1.37	>3.23	–	–	–	–	G0/G1 cell cycle arrest	–	–

Compound	inhibition at 1 µM (aurora A)	IC50 (786-O)	IC50 (HCT116)	IC50 (NCI-H460)	melting point	inhibition at 0.05 µM (VEGFR-2)	IC50 (VEGFR-2)	inhibition at 0.05 µM (PDGFRβ)	IC50 (PDGFRβ)	IC50 (HUVECs)	IC50 (Detroit 551)	Selective Index (SI) 786-O (786-O)	Selective Index (SI) HCT116 (HCT116)	anti-proliferation potency against HCT116, fold stronger than 8 (HCT116; vs 8 (C(5)-H))	anti-proliferation potency against HCT116, fold stronger than sunitinib (HCT116; vs sunitinib)	Selective Index (SI) NCI-H460 (NCI-H460)	cell cycle profile effect (HCT116 cells; 1.0 μM)	cell cycle profile effect (HCT116 cells; 5.0 μM)	acute cellular toxicity [1]	tube formation IC50, fold stronger than sunitinib (HUVECs; vs sunitinib)
CCN(CC)CCN1Cc2[nH]c(/C=C3\C(=O)Nc4ccc(I)cc43)c(C)c2C1=O [Compound 12, (Z)-3-((5-(2-(Diethylamino)ethyl)-3-methyl-4-oxo-1,4,5,6-tetrahydropyrrolo[3,4-b]pyrrol-2-yl)methylene)-5-iodoindolin-2-one]	92.9%	7.76 ± 0.29 µM	0.42 ± 0.16 µM	2.95 ± 0.83 µM	267 to 268 °C	58%	35.1 nM	62%	29.3 nM	313 ± 37 nM	9.21 ± 1.61 µM	1.19	21.93	~10 fold	approximately 8 fold	3.12	G0/G1 cell cycle arrest	–	–	–
CCN(CC)CCN1Cc2[nH]c(/C=C3\C(=O)Nc4ccc(Br)cc43)c(C)c2C1=O [Compound 11, (Z)-5-Bromo-3-((5-(2-(diethylamino)ethyl)-3-methyl-4-oxo-1,4,5,6-tetrahydropyrrolo[3,4-b]pyrrol-2-yl)methylene)indolin-2-one]	93.1%	7.06 ± 0.3 µM	1.05 ± 0.18 µM	6.57 ± 1.64 µM	266 to 267 °C	64%	24.7 nM	68%	16.1 nM	179 ± 29 nM	> 10 µM	>1.42	>9.52	–	–	>1.52	increase phase of polyploid	–	–	approximately 2 fold
